How the values were obtained:
Format in all cases: cell-based
COR-L105 = experiment: CellTiter-Glo proliferation assay, COR-L105; settings: COR-L105, 5 days
In short: (§1)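 Both lines grown in RPMI-1640 + 10% FBS. COR-L105 plated flat at 1,000 cells/well overnight; NCI-H1650 grown as spheroids, 3,000 cells/well, 72 h. Compounds at 0.508 nM-10 μM final for 5 days, 37° C. ATP read by CellTiter-Glo (3D version for spheroids); IC50 from variable-slope fit normalized to untreated cells.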

NCI-H1650 = experiment: CellTiter-Glo 3D proliferation assay, NCI-H1650 spheroids; settings: 5 days
In short: as §1

MOLT-4 cells = experiment: MOLT-4 cell viability, MTT assay; settings: Homo sapiens, MOLT-4, 48 h
In short: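 MOLT-4 cells in RPMI 1640 with 10% FBS were exposed to compounds for 48 h at 9 concentrations (3.16-fold dilutions, triplicates). After 4 h with MTT and overnight SDS/HCl solubilisation, absorbance was read at 540 nm. IC50 came from four-parameter fits versus control, as the mean of ≥2 independent experiments.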

IC50 (NCI-H1650) [nM]	IC50 (NCI-H1650; Homo sapiens, NCI-H1650, 120 h) [nM]	IC50 (MOLT-4 cells) [nM]	SMILES	IC50 (COR-L105) [nM]	IC50 (COR-L105; Homo sapiens, COR-L105, 120 h) [nM]	Emax (COR-L105; Homo sapiens, COR-L105, 120 h, read-out: COR-L105 Span (max)) [%]	Emax (NCI-H1650; Homo sapiens, NCI-H1650, 120 h, read-out: NCI-H1650 Span (Amax)) [%]
92.9	95	2.64	Cc1ncsc1-c1ccc(CNC(=O)[C@@H]2CC(O)CN2C(=O)C(NC(=O)CCCCCCC(=O)N2CCN(CCOC34CC5(C)CC(C)(CC(Cn6ncc(-c7ccc(N8CCCc9c8nnc(Nc8nc%10ccccc%10s8)c9C)nc7C(=O)O)c6C)(C5)C3)C4)CC2)C(C)(C)C)cc1 (stereo in doubt) [Example 24, 6-[3-(1,3-benzothiazol-2-ylamino)-4-methyl-6,7-dihydro-5H-pyrido[2,3-c]pyridazin-8-yl]-3-[1-[[3-[2-[4-[8-[[(1S)-1-[(2S,4R)-4-hydroxy-2-[[4-(4-methylthiazol-5-yl)phenyl]methylcarbamoyl]pyrrolidine-1-carbonyl]-2,2-dimethyl-propyl]amino]-8-oxo-octanoyl]piperazin-1-yl]ethoxy]-5,7-dimethyl-1-adamantyl]methyl]-5-methyl-pyrazol-4-yl]pyridine-2-carboxylic acid]	348	500	104	89.1
		3.58	Cc1ncsc1-c1ccc([C@H](C)NC(=O)[C@@H]2C[C@@H](O)CN2C(=O)[C@@H](NC(=O)CCCCCCCCN(C)CCOC23CC4(C)CC(C)(CC(Cn5ncc(-c6ccc(N7CCCc8c7nnc(Nc7nc9ccccc9s7)c8C)nc6C(=O)O)c5C)(C4)C2)C3)C(C)(C)C)cc1 [Example 5, 6-[3-(1,3-benzothiazol-2-ylamino)-4-methyl-6,7-dihydro-5H-pyrido[2,3-c]pyridazin-8-yl]-3-[1-[[3-[2-[[9-[[(1S)-1-[(2S,4R)-4-hydroxy-2-[[(1S)-1-[4-(4-methylthiazol-5-yl)phenyl]ethyl]carbamoyl]pyrrolidine-1-carbonyl]-2,2-dimethyl-propyl]amino]-9-oxo-nonyl]-methyl-amino]ethoxy]-5,7-dimethyl-1-adamantyl]methyl]-5-methyl-pyrazol-4-yl]pyridine-2-carboxylic acid]				
		6.57	Cc1ncsc1-c1ccc([C@H](C)NC(=O)[C@@H]2C[C@@H](O)CN2C(=O)[C@@H](NC(=O)CCCCCCCN(C)CCOC23CC4(C)CC(C)(CC(Cn5ncc(-c6ccc(N7CCCc8c7nnc(Nc7nc9ccccc9s7)c8C)nc6C(=O)O)c5C)(C4)C2)C3)C(C)(C)C)cc1 [Example 6, 6-[3-(1,3-benzothiazol-2-ylamino)-4-methyl-6,7-dihydro-5H-pyrido[2,3-c]pyridazin-8-yl]-3-[1-[[3-[2-[[8-[[(1S)-1-[(2S,4R)-4-hydroxy-2-[[(1S)-1-[4-(4-methylthiazol-5-yl)phenyl]ethyl]carbamoyl]pyrrolidine-1-carbonyl]-2,2-dimethyl-propyl]amino]-8-oxo-octyl]-methyl-amino]ethoxy]-5,7-dimethyl-1-adamantyl]methyl]-5-methyl-pyrazol-4-yl]pyridine-2-carboxylic acid]				

Reference: patent US20240376094A2, “SELECTIVE BCL-XL PROTAC COMPOUNDS AND METHODS OF USE” (Les Laboratoires Servier, priority 2021, published 2024)
